Measured values reported in PubChem BioAssay (NCI).
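These data come from cells grown in 96-well plates and exposed to compound for 48 hours at five concentrations. GI50 = concentration required for 50% inhibition of growth. At the TGI there is no net growth.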

Experiments:
Assay in all cases: DTP human tumour cell line panel, 48 h
[1] = test system: TK-10 renal
[2] = test system: HOP-92 NSCLC
[3] = test system: M14 melanoma
[4] = test system: SK-MEL-5 melanoma
[5] = test system: SK-OV-3 ovarian
[6] = test system: 786-0 renal
[7] = test system: HT29 colon
[8] = test system: SF-268 CNS
[9] = test system: SW-620 colon
[10] = test system: NCI-H522 lung
[11] = test system: BT-549 breast
[12] = test system: SK-MEL-2 melanoma
[13] = test system: HOP-62 NSCLC
[14] = test system: SR leukemia
[15] = test system: NCI/ADR-RES ovarian
[16] = test system: IGROV1 ovarian
[17] = test system: EKVX NSCLC
[18] = test system: UACC-62 melanoma
[19] = test system: RPMI-8226 leukemia
[20] = test system: SK-MEL-28 melanoma
[21] = test system: K-562 leukemia
[22] = test system: T-47D breast
[23] = test system: HCT-15 colon
[24] = test system: OVCAR-8 ovarian
[25] = test system: HS 578T breast
[26] = test system: OVCAR-5 ovarian
[27] = test system: MDA-MB-435
[28] = test system: PC-3 prostate
[29] = test system: HCT-116 colon
[30] = test system: HCC-2998 colon
[31] = test system: ACHN renal
[32] = test system: OVCAR-3 ovarian
[33] = test system: HL-60(TB) leukemia
[34] = test system: SF-295 CNS
[35] = test system: NCI-H23 lung
[36] = test system: SNB-75 CNS
[37] = test system: SN12C renal
[38] = test system: MDA-MB-231 breast
[39] = test system: MALME-3M melanoma
[40] = test system: A498 renal
[41] = test system: DU-145 prostate
[42] = test system: OVCAR-4 ovarian
[43] = test system: MOLT-4 leukemia
[44] = test system: LOX IMVI melanoma
[45] = test system: KM12 colon
[46] = test system: MCF7 breast
[47] = test system: SNB-19 CNS
[48] = test system: SF-539 CNS
[49] = test system: A549 NSCLC
[50] = test system: CAKI-1 renal
[51] = test system: UO-31 renal
[52] = test system: UACC-257 melanoma
[53] = test system: RXF 393 renal
[54] = test system: COLO 205 colon
[55] = test system: NCI-H460 lung
[56] = test system: CCRF-CEM leukemia
[57] = test system: NCI-H226 lung
[58] = test system: U251 CNS

O=Cc1cn(Cc2ccccc2)c2ccccc12
GI50 [1]: 0.946 µM
TGI [1]: 9 µM
GI50 [2]: 20.6 µM
TGI [2]: > 100 µM
GI50 [3]: 43.4 µM
TGI [3]: > 100 µM
GI50 [4]: 18.7 µM
TGI [4]: > 70 µM
GI50 [5]: 4.04 µM
TGI [5]: > 100 µM
GI50 [6]: 33.1 µM
TGI [6]: 97.8 µM
GI50 [7]: 61.5 µM
TGI [7]: > 100 µM
GI50 [8]: 52.1 µM
TGI [8]: > 100 µM
GI50 [9]: 45.6 µM
TGI [9]: > 100 µM
GI50 [10]: > 100 µM
TGI [10]: > 100 µM
GI50 [11]: 29.2 µM
TGI [11]: > 96.8 µM
GI50 [12]: 8.62 µM
TGI [12]: 60.6 µM
GI50 [13]: 21.8 µM
TGI [13]: > 100 µM
GI50 [14]: > 35.4 µM
TGI [14]: > 82 µM
GI50 [15]: 35.7 µM
TGI [15]: > 100 µM
GI50 [16]: 0.5 µM
TGI [16]: > 38.1 µM
GI50 [17]: 22.8 µM
TGI [17]: > 81 µM
GI50 [18]: 2.31 µM
TGI [18]: 19.4 µM
GI50 [19]: 6.39 µM
TGI [19]: 47.7 µM
GI50 [20]: > 57.8 µM
TGI [20]: > 100 µM
GI50 [21]: 18.7 µM
TGI [21]: > 100 µM
GI50 [22]: 3.12 µM
TGI [22]: > 100 µM
GI50 [23]: 52.4 µM
TGI [23]: > 100 µM
GI50 [24]: 43.5 µM
TGI [24]: > 100 µM
GI50 [25]: 30.5 µM
TGI [25]: > 100 µM
GI50 [26]: 0.238 µM
GI50 [27]: 46.2 µM
TGI [27]: > 100 µM
GI50 [28]: 35.7 µM
TGI [28]: > 100 µM
GI50 [29]: 13.7 µM
TGI [29]: > 100 µM
GI50 [30]: 21.9 µM
TGI [30]: > 100 µM
GI50 [31]: 33.6 µM
TGI [31]: > 100 µM
GI50 [32]: 21 µM
TGI [32]: > 67.5 µM
GI50 [33]: 16.9 µM
TGI [33]: > 80.5 µM
GI50 [34]: 5.15 µM
TGI [34]: > 63.4 µM
GI50 [35]: 37.9 µM
TGI [35]: > 100 µM
GI50 [36]: 27.1 µM
TGI [36]: > 100 µM
GI50 [37]: 49.2 µM
TGI [37]: > 100 µM
GI50 [38]: 38.7 µM
TGI [38]: > 100 µM
GI50 [39]: > 56 µM
TGI [39]: > 100 µM
GI50 [40]: 0.163 µM
TGI [40]: 0.389 µM
GI50 [41]: > 68.2 µM
TGI [41]: > 100 µM
GI50 [42]: 5.83 µM
TGI [42]: > 100 µM
GI50 [43]: 21.1 µM
TGI [43]: > 100 µM
GI50 [44]: 24.4 µM
TGI [44]: > 100 µM
GI50 [45]: 53.3 µM
TGI [45]: > 100 µM
GI50 [46]: 30.7 µM
TGI [46]: > 100 µM
GI50 [47]: 75.4 µM
TGI [47]: > 100 µM
GI50 [48]: 43.7 µM
TGI [48]: > 100 µM
GI50 [49]: 35 µM
TGI [49]: > 100 µM
GI50 [50]: < 0.0426 µM
TGI [50]: 0.547 µM
GI50 [51]: 18.2 µM
TGI [51]: > 100 µM
GI50 [52]: 3.44 µM
TGI [52]: 19.5 µM
GI50 [53]: > 47.7 µM
TGI [53]: 97.7 µM
GI50 [54]: 0.438 µM
TGI [54]: > 32.4 µM
GI50 [55]: 0.279 µM
TGI [55]: > 100 µM
GI50 [56]: 41.8 µM
TGI [56]: > 100 µM
GI50 [57]: 0.916 µM
TGI [57]: 3.72 µM
GI50 [58]: 31.5 µM
TGI [58]: > 100 µM
